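Cultured in 96-well plates, cells were exposed to test compound for 48 hours across five concentrations. GI50 = concentration required for 50% inhibition of growth.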 Calls of active or inactive are those of the source. No stated cut-off is given here; in the data, active = GI50 up to about 1.1 µM and inactive = higher. Starred links: 1 amine or outer side, 2 acyl side, 3 side chain; linkers in the order of their positions; H or OH if unused. Non-standard residues stand in square brackets, D forms with d. Residues, ends and D or L forms follow the SMILES beside them. ξ: configuration not given here. X24 = O=C(C(CC(O)CO)O[*:1])[*:2]; Ile(3ξ) = CCC(C)[C@H](N)C(=O)O; NMeV = CN[C@H](C(=O)O)C(C)C; NMeA = CN[C@@H](C)C(=O)O; βAla = NCCC(=O)O
Key:
Test in all cases: NCI tumour cell line growth inhibition, 48 h
SK-MEL-28 = tested on: SK-MEL-28
SR = tested on: SR
HCC 2998 = tested on: HCC 2998
SNB-75 = tested on: SNB-75
RPMI-8226 = tested on: RPMI-8226
SK-MEL-5 = tested on: SK-MEL-5
COLO 205 = tested on: COLO 205
OVCAR-8 = tested on: OVCAR-8
LOX IMVI = tested on: LOX IMVI
SK-MEL-2 = tested on: SK-MEL-2
UACC-62 = tested on: UACC-62
NCI-H460 = tested on: NCI-H460
ACHN = tested on: ACHN
CAKI-1 = tested on: CAKI-1

Measured: GI50

O=C(Cc1ccc([N+](=O)[O-])c([N+](=O)[O-])c1CC(=O)C(=O)Nc1cc(Cl)ccc1Cl)C(=O)Nc1cc(Cl)ccc1Cl
inactive: SK-MEL-28 > 100 µM | SR > 100 µM | HCC 2998 > 100 µM | SNB-75 > 100 µM | RPMI-8226 28 µM | SK-MEL-5 > 100 µM | COLO 205 22.9 µM | OVCAR-8 > 100 µM | LOX IMVI 26.2 µM | SK-MEL-2 > 100 µM | UACC-62 > 100 µM | NCI-H460 72.6 µM | ACHN > 100 µM | CAKI-1 > 100 µM

O=C1NC2C=CN(Cc3ccccc3)C=C2C(=O)N2CCCC12 (stereo not given)
inactive: SK-MEL-28 > 100 µM | SR > 100 µM | HCC 2998 > 100 µM | SNB-75 > 100 µM | SK-MEL-5 > 100 µM | COLO 205 > 100 µM | OVCAR-8 > 100 µM | SK-MEL-2 > 100 µM | UACC-62 > 100 µM | NCI-H460 > 100 µM | ACHN > 100 µM | CAKI-1 > 100 µM

Cc1ccc(NC(=O)/C(C#N)=C/c2ccccc2)c(C)c1
inactive: SK-MEL-28 > 100 µM | SR > 100 µM | HCC 2998 > 100 µM | SNB-75 > 100 µM | RPMI-8226 > 100 µM | SK-MEL-5 > 100 µM | COLO 205 > 100 µM | OVCAR-8 > 100 µM | SK-MEL-2 > 100 µM | UACC-62 > 100 µM | NCI-H460 > 100 µM | ACHN > 100 µM | CAKI-1 > 100 µM

CCOc1ccc2c(c1)[n+]([O-])c(-c1ccccc1Cl)c(N)[n+]2[O-]
inactive: SK-MEL-28 > 100 µM | SR 94 µM | SNB-75 80 µM | SK-MEL-5 90.2 µM | COLO 205 > 100 µM | OVCAR-8 > 100 µM | SK-MEL-2 > 100 µM | NCI-H460 > 100 µM | ACHN > 100 µM | CAKI-1 > 100 µM

C=C1c2ccccc2N(S(=O)(=O)c2ccc(C)cc2)C12CCCCC2
inactive: SK-MEL-28 45.2 µM | SR 13.1 µM | HCC 2998 > 100 µM | SNB-75 50.9 µM | RPMI-8226 24.4 µM | SK-MEL-5 30.8 µM | COLO 205 43.5 µM | OVCAR-8 > 100 µM | LOX IMVI 36.6 µM | SK-MEL-2 52.6 µM | UACC-62 62.2 µM | NCI-H460 86.7 µM | ACHN 57.4 µM

CCC(C)[C@@H]1NC(=O)[C@@H]2CCCN2C(=O)C(CC(O)CO)OC(=O)CCNC(=O)[C@H](C)N(C)C(=O)[C@H](C(C)C)N(C)C1=O (stereo not given in full) (cyclo([Ile(3ξ)][NMeV][NMeA][βAla][X24]P))
inactive: SK-MEL-28 > 100 µM | SR > 100 µM | SNB-75 > 100 µM | RPMI-8226 > 100 µM | SK-MEL-5 > 100 µM | COLO 205 > 100 µM | OVCAR-8 > 100 µM | LOX IMVI 84.5 µM | SK-MEL-2 > 100 µM | UACC-62 > 100 µM | NCI-H460 > 100 µM | CAKI-1 > 100 µM

COc1ccc(-c2cc(C(=O)Nc3cccc(C(F)(F)F)c3)nc(S)n2)cc1
inactive: SK-MEL-28 > 100 µM | SR > 100 µM | HCC 2998 > 100 µM | SNB-75 > 100 µM | RPMI-8226 > 100 µM | SK-MEL-5 > 100 µM | COLO 205 > 100 µM | OVCAR-8 > 100 µM | LOX IMVI > 100 µM | SK-MEL-2 > 100 µM | UACC-62 > 100 µM | NCI-H460 > 100 µM | ACHN > 100 µM | CAKI-1 > 100 µM

O=C(O)c1c2c(cc3c(=O)cc(-c4ccccc4)oc13)CCCC2
inactive: SK-MEL-28 > 100 µM | HCC 2998 > 100 µM | SNB-75 6.59 µM | RPMI-8226 > 100 µM | SK-MEL-5 > 100 µM | COLO 205 > 100 µM | OVCAR-8 > 100 µM | LOX IMVI > 100 µM | SK-MEL-2 > 100 µM | UACC-62 > 100 µM | NCI-H460 > 100 µM | ACHN > 100 µM

O=C(/C=C\c1cccc2ccccc12)c1cccs1
inactive: SK-MEL-28 14.3 µM | HCC 2998 15.5 µM | SNB-75 23.6 µM | RPMI-8226 2.47 µM | SK-MEL-5 13.3 µM | COLO 205 15.7 µM | OVCAR-8 7.08 µM | UACC-62 9.95 µM | NCI-H460 14 µM | ACHN 11.5 µM | CAKI-1 6.31 µM

COc1cc2c3c(c1OC)-c1ccccc1C(C(O)c1ccccc1)C3N(C)CC2 (stereo not given)
inactive: SK-MEL-28 16.4 µM | SR 18 µM | HCC 2998 17.7 µM | SNB-75 40 µM | RPMI-8226 21.9 µM | SK-MEL-5 14.4 µM | COLO 205 15.8 µM | OVCAR-8 69.3 µM | LOX IMVI 32.1 µM | SK-MEL-2 28.1 µM | UACC-62 7.76 µM | NCI-H460 27.3 µM | ACHN 39.1 µM

O=C(O)COc1ccc(O)c2c1C(=O)CCCC2=O
inactive: SK-MEL-28 > 100 µM | HCC 2998 > 100 µM | RPMI-8226 > 100 µM | SK-MEL-5 > 100 µM | COLO 205 > 100 µM | OVCAR-8 > 100 µM | LOX IMVI > 100 µM | SK-MEL-2 > 100 µM | UACC-62 > 100 µM | NCI-H460 > 100 µM | ACHN > 100 µM | CAKI-1 > 100 µM

CCCCCCCCOCC(O)COC(C)C (stereo not given)
inactive: SK-MEL-28 > 100 µM | SR 17 µM | HCC 2998 26.6 µM | RPMI-8226 22.8 µM | SK-MEL-5 26.2 µM | COLO 205 40 µM | OVCAR-8 70 µM | LOX IMVI 25.8 µM | UACC-62 91.4 µM | NCI-H460 42.6 µM | ACHN 97.9 µM | CAKI-1 43.1 µM

COc1ccc(C(=O)C(c2ccc(OC)cc2)C2C(=O)Oc3ccccc32)cc1 (stereo not given)
inactive: SK-MEL-28 > 10 µM | SR > 10 µM | HCC 2998 > 10 µM | SNB-75 > 10 µM | RPMI-8226 > 10 µM | SK-MEL-5 > 10 µM | COLO 205 > 10 µM | OVCAR-8 > 10 µM | LOX IMVI > 10 µM | SK-MEL-2 > 10 µM | UACC-62 > 10 µM | NCI-H460 > 10 µM | ACHN > 10 µM | CAKI-1 > 10 µM

COc1cc2cc3c4c(cc(OC)c(OC)c4c2cc1OC)CCN3C(=O)CCC(=O)O
inactive: SK-MEL-28 > 100 µM | SR > 100 µM | HCC 2998 > 100 µM | RPMI-8226 > 100 µM | SK-MEL-5 > 100 µM | COLO 205 > 100 µM | LOX IMVI > 100 µM | SK-MEL-2 > 100 µM | UACC-62 > 100 µM | ACHN > 100 µM | CAKI-1 > 100 µM

CN(C)CCc1ccc(Cl)cc1Cl
inactive: SK-MEL-28 > 100 µM | SR > 100 µM | HCC 2998 > 100 µM | SNB-75 28.3 µM | RPMI-8226 > 100 µM | SK-MEL-5 > 100 µM | COLO 205 > 100 µM | OVCAR-8 > 100 µM | LOX IMVI > 100 µM | SK-MEL-2 > 100 µM | UACC-62 > 100 µM | NCI-H460 > 100 µM | ACHN > 100 µM | CAKI-1 > 100 µM

Cc1cc(Cl)ccc1NC(=O)C1C(=O)C(=O)N(c2ccc(Cl)cc2C)C1=O (stereo not given)
inactive: SK-MEL-28 > 100 µM | HCC 2998 > 100 µM | SNB-75 > 100 µM | RPMI-8226 29 µM | SK-MEL-5 > 100 µM | COLO 205 > 100 µM | OVCAR-8 56.6 µM | LOX IMVI > 100 µM | SK-MEL-2 89.9 µM | UACC-62 63.2 µM | ACHN > 100 µM | CAKI-1 > 100 µM

O=C(O)c1cc2ccc(Cl)cc2c(O)c1C1=CCCCC1
inactive: SK-MEL-28 66.5 µM | SR 57.4 µM | HCC 2998 > 100 µM | SNB-75 19.4 µM | RPMI-8226 34.6 µM | SK-MEL-5 30.3 µM | COLO 205 67.8 µM | OVCAR-8 40.4 µM | LOX IMVI 33 µM | SK-MEL-2 19.9 µM | UACC-62 24.5 µM | NCI-H460 35.8 µM | ACHN 65 µM | CAKI-1 33.2 µM

CCCCCCCC/C=C\CCCCCCCC(=O)NCCN(CCN)C(=O)CCCCCCC/C=C\CCCCCCCC
inactive: SK-MEL-28 > 100 µM | SR > 100 µM | HCC 2998 > 100 µM | RPMI-8226 > 100 µM | SK-MEL-5 > 100 µM | COLO 205 > 100 µM | OVCAR-8 > 100 µM | LOX IMVI > 100 µM | UACC-62 > 100 µM | NCI-H460 > 100 µM | ACHN > 100 µM | CAKI-1 51.5 µM

C=CCOC1CC(n2cnc3c(N)ncnc32)OC1CO (stereo not given)
inactive: SK-MEL-28 > 100 µM | SR > 100 µM | HCC 2998 > 100 µM | SNB-75 51.1 µM | RPMI-8226 > 100 µM | SK-MEL-5 > 100 µM | COLO 205 > 100 µM | OVCAR-8 > 100 µM | SK-MEL-2 > 100 µM | UACC-62 > 100 µM | NCI-H460 > 100 µM | ACHN > 100 µM | CAKI-1 > 100 µM

COc1ccc2c(c1)[n+]([O-])c(C(=O)C/C(=N\NC(=O)C[N+](C)(C)C)C(=O)Nc1cc(Cl)ccc1Cl)c(C)[n+]2[O-]
inactive: SK-MEL-28 > 100 µM | SR 43.3 µM | HCC 2998 > 100 µM | SNB-75 > 100 µM | RPMI-8226 > 100 µM | SK-MEL-5 > 100 µM | COLO 205 > 100 µM | OVCAR-8 > 100 µM | LOX IMVI > 100 µM | SK-MEL-2 > 100 µM | UACC-62 97.7 µM | NCI-H460 > 100 µM | ACHN > 100 µM | CAKI-1 > 100 µM

CC(=O)O/N=C/c1cc2c(cc1Br)OCO2
inactive: SK-MEL-28 > 349 µM | SR > 349 µM | HCC 2998 > 349 µM | RPMI-8226 > 349 µM | SK-MEL-5 > 349 µM | COLO 205 > 349 µM | OVCAR-8 > 349 µM | LOX IMVI > 349 µM | SK-MEL-2 > 349 µM | UACC-62 > 349 µM | NCI-H460 > 349 µM | ACHN > 349 µM | CAKI-1 > 349 µM

Source: ChEMBL document CHEMBL1201862, “PubChem BioAssay data set” (2004)
